The record followed here is patent publication US10501482B2, “Compounds for treating spinal muscular atrophy” (Hoffmann-La Roche Inc., priority 2013, dated 2019).

Counter-ions that a name gives are not always drawn.

For experiment [1], the system named is full length SMN2 minigene mRNA (FL SMN2mini) in HEK293H cells stably transfected with the SMN2-A minigene construct. Put plainly: SMN2 minigene mRNA splicing RT-qPCR assay in cultured cells. The class given is cell-based. To be noted: Homo sapiens, HEK293-H, 24 hours, 7-point concentration curve, concentration giving 1.5-fold FL SMN2mini mRNA vs vehicle, read-out: EC1.5x minigene (EC1.5x concentration for production of full length SMN2 minigene mRNA). The procedure:
The reverse transcription-quantitative PCR-based (RT-qPCR) assay is used to quantify the level of the full length SMN2 minigene (referred to herein by the term “FL SMN2mini”) mRNA containing SMN2 exon 7 in a HEK293H cell line stably transfected with said minigene and treated with a test compound.
The SMN2-A minigene construct was prepared as described in International Patent Application WO2009/151546A1 page 145 paragraph [00400] to page 147 paragraph [00412](incl. FIG. 1 and FIG. 3 therein).
HEK293H cells stably transfected with the SMN2-A minigene construct (10,000 cells/well) are seeded in 200 μL of cell culture medium (DMEM plus 10% FBS, with 200 μg/mL hygromycin) in 96-well flat-bottom plates and the plate is immediately swirled to ensure proper dispersal of cells and the formation of an even monolayer of cells. Cells are allowed to attach for 6 hours. […] A solution of test compound (1 μL, 200× in DMSO) is added to each cell-containing well and the plate is incubated for 24 hours in a cell culture incubator (37° C., 5% CO2, 100% relative humidity). 2 replicates are prepared for each test compound concentration. The cells are then lysed in the Cells-To-Ct lysis buffer and the lysate is stored at −80° C.
Full length SMN2-A minigene and GAPDH mRNA are quantified using the primers and probes referenced in Table 1. Primer SMN Forward A (SEQ ID NO.1) hybridizes to a nucleotide sequence in exon 7 (nucleotide 22 to nucleotide 40), primer SMN Reverse A (SEQ ID NO.2) hybridizes to a nucleotide sequence in the coding sequence of Firefly luciferase, SMN Probe A (SEQ ID NO.3) hybridizes to a nucleotide sequence in exon 7 (nucleotide 50 to nucleotide 54) and exon 8 (nucleotide 1 to nucleotide 21). The combination of these three oligonucleotides detects only SMN1 or SMN2 minigenes (RT-qPCR) and will not detect endogenous SMN1 or SMN2 genes.
The SMN forward and reverse primers are used at final concentrations of 0.4 μM. The SMN probe is used at a final concentration of 0.15 μM. The GAPDH primers are used at final concentrations of 0.2 μM and the probe at 0.15 μM.
The SMN2-minigene GAPDH mix (15 μL total volume) is prepared by combining 7.5 μL of 2×RT-PCR buffer, 0.4 μL of 25×RT-PCR enzyme mix, 0.75 μL of 20×GAPDH primer-probe mix, 4.0075 μL of water, 2 μL of 10-fold diluted cell lysate, 0.06 μL of 100 μM SMN forward primer, 0.06 μL of 100 μM SMN reverse primer, and 0.225 μL of 100 μM SMN probe.
PCR is carried out at the following temperatures for the indicated time: Step 1: 48° C. (15 min); Step 2: 95° C. (10 min); Step 3: 95° C. (15 sec); Step 4: 60° C. (1 min); then repeat Steps 3 and 4 for a total of 40 cycles.
Each reaction mixture contains both SMN2-A minigene and GAPDH primers/probe sets (multiplex design), allowing simultaneous measurement of the levels of two transcripts.
The increase in the abundance of the FL SMN2mini mRNA relative to that in cells treated with vehicle control is determined from real-time PCR data using a modified ΔΔCt method (as described in Livak and Schmittgen, Methods, 2001, 25:402-8). The amplification efficiency E is calculated from the slope of the amplification curve for FL SMN2mini and GAPDH individually. The abundance of FL SMN2mini and GAPDH mRNA are then calculated as (1+E)^−Ct, where Ct is the threshold value for each amplicon. The abundance of FL SMN2mini mRNA is normalized to GAPDH mRNA abundance. The normalized FL SMN2mini mRNA abundance from test compound-treated samples is then divided by normalized FL SMN2mini mRNA abundance from vehicle-treated cells to determine the level of FL SMN2mini mRNA relative to vehicle control.
Table 2 provides EC1.5x concentrations for production of full length SMN2 minigene mRNA that was obtained from the 7-point concentration data generated according to the above procedure for particular compounds of the present invention.

A further experiment deals with SMN protein. In words: SMN protein assay (HTRF) in cultured SMA patient fibroblast cells. To be noted: SMA Type 1 human fibroblasts GM03813, 48 hours; for EC1.5x SMN protein (EC1.5x concentration for SMN protein expression): 7-point concentration curve, concentration giving 1.5 times SMN protein vs vehicle; for max. fold increase (maximum fold increase of SMN protein): 7-point concentration data, fold vs vehicle control. The class given is cell-based. The procedure:
The SMN HTRF (homogeneous time resolved fluorescence) assay is used to quantify the level of SMN protein in SMA patient fibroblast cells treated with test compounds.
Cells are thawed and cultured in DMEM-10% FBS for 72 hours. Cells are trypsinized, counted and re-suspended to a concentration of 25,000 cells/mL in DMEM-10% FBS. The cell suspensions are plated at 5,000 cells per well in a 96 well microtiter plate and incubated for 3 to 5 hours. […] 1 μL of test compound solution is transferred to cell-containing wells and cells are incubated for 48 hours in a cell culture incubator (37° C., 5% CO2, 100% relative humidity). Triplicate samples are set up for each test compound concentration. After 48 hours, the supernatant is removed from the wells and 25 μL of the RIPA lysis buffer, containing protease inhibitors, is added to the wells and incubated with shaking at room temperature for 1 hour. 25 μL of the diluent is added and then 35 μL of the resulting lysate is transferred to a 384-well plate, where each well contains 5 μL of the antibody solution (1:100 dilution of anti-SMN d2 and anti-SMN kryptate in SMN reconstitution buffer). The plate is centrifuged for 1 minute to bring the solution to the bottom of the wells, then incubated overnight at room temperature. Fluorescence for each well of the plate at 665 nm and 620 nm is measured on an EnVision multilabel plate reader (Perkin-Elmer).
The normalized fluorescence signal is calculated for each sample, Blank and vehicle control well by dividing the signal at 665 nm by the signal at 620 nm. Normalizing the signal accounts for possible fluorescence quenching due to the matrix effect of the lysate. The ΔF value (a measurement of SMN protein abundance as a percent value) for each sample well is calculated by subtracting the normalized average fluorescence for the Blank control wells from the normalized fluorescence for each sample well, then dividing this difference by the normalized average fluorescence for the Blank control wells and multiplying the resulting value by 100. The ΔF value for each sample well represents the SMN protein abundance from test compound-treated samples. The ΔF value for each sample well is divided by the ΔF value for the vehicle control wells to calculate the fold increase in SMN protein abundance relative to the vehicle control. Table 3 provides EC1.5x concentrations for SMN protein expression that was obtained from the 7-point concentration data generated according to the above procedure for particular compounds of the present invention.
Table 4 provides the maximum fold increase of SMN protein that was obtained from the 7-point concentration data generated according to the above procedure for particular compounds of the present invention
For orientation: In TR-FRET formats the signal depends on donor and acceptor labels being close together.

As for `Cc1cn2cc(NC(=O)c3ccc(N4CCNC(C)C4)cc3F)cc(F)c2n1` (racemic) [Example 39, rac-2-fluoro-N-(8-fluoro-2-methyl-imidazo[1,2-a]-pyridin-6-yl)-4-(3-methylpiperazin-1-yl)benzamide dihydrochloride], the EC (1.5-fold) in experiment [1] is 0.0168 µM. Moreover, in the experiment on SMN protein, the “EC1.5x SMN protein (EC1.5x concentration for SMN protein expression)” value (shortened to “EC1.5x SMN protein”) is 0.0147 µM and the “max. fold increase (maximum fold increase of SMN protein)” value (“max. fold increase” below) came out at 1.8791.

On to `Cc1cn2cc(NC(=O)c3ccc(N4CCNC(C)C4)nc3)cc(F)c2n1` (racemic) [Example 42, rac-N-(8-fluoro-2-methylimidazo-[1,2-a]pyridin-6-yl)-6-(3-methyl-piperazin-1-yl)-nicotinamide dihydrochloride], for which the EC (1.5-fold) in experiment [1] was 0.0544 µM. In addition, in the experiment on SMN protein, the “EC1.5x SMN protein” value came to 0.1488 µM and the “max. fold increase” value came to 1.6988.

As to `Cc1cn2cc(NC(=O)c3ccc(N4CCNC(C)C4)cn3)cc(F)c2n1` (racemic) [Example 43, rac-N-(8-fluoro-2-methylimidazo[1,2-a]pyridin-6-yl)-5-(3-methylpiperazin-1-yl)picolinamide dihydrochloride], the EC (1.5-fold) in experiment [1] was determined as 0.057 µM. In the experiment with SMN protein, the “EC1.5x SMN protein” value came out at 0.104 µM and the “max. fold increase” value is listed as 1.7873.

`Cc1cn2cc(NC(=O)c3ccc(N4CCNC(C)C4)c(F)c3F)cc(F)c2n1` (racemic) [Example 45, rac-2,3-difluoro-N-(8-fluoro-2-methylimidazo[1,2-a]pyridin-6-yl)-4-(3-methylpiperazin-1-yl)benzamide hydrochloride]: the EC (1.5-fold) in experiment [1] is 0.0615 µM. In the experiment with SMN protein, the “EC1.5x SMN protein” value stood at 0.5147 µM and the “max. fold increase” value stood at 1.6445.

Take `Cc1cn2cc(NC(=O)c3cc(F)c(N4CCNC(C)C4)cc3F)cc(F)c2n1` (racemic) [Example 46, rac-2,5-difluoro-N-(8-fluoro-2-methyl-imidazo[1,2-a]-pyridin-6-yl)-4-(3-methylpiperazin-1-yl)benzamide hydrochloride]: the EC (1.5-fold) in experiment [1] was found to be 0.0887 µM. Besides, in the experiment on SMN protein, the “EC1.5x SMN protein” value came to 0.3584 µM and the “max. fold increase” value worked out at 1.5572.

`Cc1cn2cc(NC(=O)c3cnc(N4CCNC(C)C4)c(F)c3)cc(F)c2n1` (racemic) [Example 47, rac-5-fluoro-N-(8-fluoro-2-methyl-imidazo[1,2-a]-pyridin-6-yl)-6-(3-methylpiperazin-1-yl)nicotinamide hydrochloride]: the EC (1.5-fold) in experiment [1] amounted to 0.396 µM. Further, in the experiment on SMN protein, the “EC1.5x SMN protein” value came to 0.611 µM and the “max. fold increase” value came to 1.7065.

As for `Cc1cn2cc(NC(=O)c3ncc(N4CCNC(C)C4)cc3F)cc(F)c2n1` (racemic) [Example 48, rac-3-fluoro-N-(8-fluoro-2-methyl-imidazo[1,2-a]-pyridin-6-yl)-5-(3-methylpiperazin-1-yl)picolinamide hydrochloride], the EC (1.5-fold) in experiment [1] was determined as 0.0164 µM. In the experiment with SMN protein, the “EC1.5x SMN protein” value came out at 0.0621 µM and the “max. fold increase” value stood at 1.738.

For the compound `Cc1cn2cc(NC(=O)c3c(F)cc(N4CCNC(C)C4)cc3F)cc(F)c2n1.Cl` (racemic) [Example 49, rac-2,6-difluoro-N-(8-fluoro-2-methyl-imidazo[1,2-a]-pyridin-6-yl)-4-(3-methylpiperazin-1-yl)benzamide hydrochloride], the EC (1.5-fold) in experiment [1] was 0.0107 µM. Also, in the experiment with SMN protein, the “EC1.5x SMN protein” value worked out at 0.1733 µM and the “max. fold increase” value was 1.658.

On to `Cc1cn2cc(NC(=O)c3ccc(N4CCNC(C)C4)cc3F)c(C)cc2n1` (racemic) [Example 52, rac-N-(2,7-dimethyl-imidazo[1,2-a]-pyridin-6-yl)-2-fluoro-4-(3-methyl-piperazin-1-yl)-benzamide dihydrochloride], for which, in experiment [1], the EC (1.5-fold) was 0.04 µM. Moreover, in the experiment on SMN protein, the “EC1.5x SMN protein” value was 0.1518 µM and the “max. fold increase” value is 1.8152.

As for `Cc1cn2cc(NC(=O)c3cnc(N4CCNC(C)C4)c(F)c3)cc(Cl)c2n1` (racemic) [Example 53, rac-N-(8-chloro-2-methylimidazo-[1,2-a]pyridin-6-yl)-5-fluoro-6-(3-methylpiperazin-1-yl)nicotinamide hydrochloride], the EC (1.5-fold) in experiment [1] came to 0.21 µM. In the experiment with SMN protein, the “EC1.5x SMN protein” value amounted to 0.7455 µM and the “max. fold increase” value is given as 1.6563.

With `Cc1cn2cc(NC(=O)c3ccc(N4CCNC(C)C4)cc3F)cc(Cl)c2n1` (racemic) [Example 54, rac-N-(8-chloro-2-methylimidazo-[1,2-a]pyridin-6-yl)-2-fluoro-4-(3-methylpiperazin-1-yl)benzamide dihydrochloride], the EC (1.5-fold) in experiment [1] is 0.0128 µM. For the same compound, in the experiment on SMN protein, the “EC1.5x SMN protein” value came out at 0.056 µM and the “max. fold increase” value is reported as 1.8217.
